Patent US20100286149A1, “NOVEL BENZAMIDE DERIVATIVES USEFUL AS POTASSIUM CHANNEL MODULATORS” (priority 2007, published 2010)

How the values were obtained:
[1] = molecular target: T1, BK channels heterologously expressed in Xenopus laevis oocytes (Homo sapiens, UniProt Q12791); assay: BK channel opening activity, two-electrode voltage clamp in Xenopus laevis oocytes; assay type: cell-based
T1 construct: expressed in transfected cells; host or cells: Xenopus laevis oocytes
Procedure: In this example the BK channel opening activity of Compound 12 (i.e. N-[5-Chloro-2-(1H-tetrazol-5-yl)-phenyl]-4-dipropylsulfamoyl-benzamide) is determined using BK channels heterologously expressed in Xenopus laevis oocytes.
The electrical current through the BK channel was measured using conventional two-electrode voltage clamp. BK currents were activated by repeating ramp protocols. In brief, the membrane potential was continuously changed from −120 mV to +120 mV within a 2 s period. The threshold for BK activation is approximately +30 mV under control conditions. Compounds were applied for 100 s during which the ramp protocol was repeated 10 times with 10 s intervals. In between the ramp protocols the membrane potential was clamped at −80 mV. The first three compound applications were control blanks where the current level is allowed to stabilize.
In order to evaluate the ability of the compounds to shift the BK activation curve towards lower membrane potentials, the BK current was transformed into conductance by using Ohm's law g=I/(Ememb−Erev), where g is the conductance, I is the current, Ememb is the membrane potential and Erev is the reversal potential. The extracellular solution for these experiments contained 2.5 mM K+ and the intracellular K+ concentration of an oocyte was estimated to be 100 mM. Under those conditions, Nernst equation predicts a reversal potential of Erev=−93.2 mV. The control conductance level at a membrane potential of +100 mV was calculated, and the compound effect was evaluated as the potential difference, ΔV, to the membrane potential at which the same conductance level was obtained in the presence of compound.
The concentration response curve for this potential difference was fitted to the sigmoidal logistic equation: ΔV=ΔVmax/(1+(EC50/[compound])^n), where ΔVmax represents the maximal left shift of the BK activation curve, EC50 is the concentration causing a half maximal response, and n is the slope coefficient.

T1 sequence (Q12791 whole entry): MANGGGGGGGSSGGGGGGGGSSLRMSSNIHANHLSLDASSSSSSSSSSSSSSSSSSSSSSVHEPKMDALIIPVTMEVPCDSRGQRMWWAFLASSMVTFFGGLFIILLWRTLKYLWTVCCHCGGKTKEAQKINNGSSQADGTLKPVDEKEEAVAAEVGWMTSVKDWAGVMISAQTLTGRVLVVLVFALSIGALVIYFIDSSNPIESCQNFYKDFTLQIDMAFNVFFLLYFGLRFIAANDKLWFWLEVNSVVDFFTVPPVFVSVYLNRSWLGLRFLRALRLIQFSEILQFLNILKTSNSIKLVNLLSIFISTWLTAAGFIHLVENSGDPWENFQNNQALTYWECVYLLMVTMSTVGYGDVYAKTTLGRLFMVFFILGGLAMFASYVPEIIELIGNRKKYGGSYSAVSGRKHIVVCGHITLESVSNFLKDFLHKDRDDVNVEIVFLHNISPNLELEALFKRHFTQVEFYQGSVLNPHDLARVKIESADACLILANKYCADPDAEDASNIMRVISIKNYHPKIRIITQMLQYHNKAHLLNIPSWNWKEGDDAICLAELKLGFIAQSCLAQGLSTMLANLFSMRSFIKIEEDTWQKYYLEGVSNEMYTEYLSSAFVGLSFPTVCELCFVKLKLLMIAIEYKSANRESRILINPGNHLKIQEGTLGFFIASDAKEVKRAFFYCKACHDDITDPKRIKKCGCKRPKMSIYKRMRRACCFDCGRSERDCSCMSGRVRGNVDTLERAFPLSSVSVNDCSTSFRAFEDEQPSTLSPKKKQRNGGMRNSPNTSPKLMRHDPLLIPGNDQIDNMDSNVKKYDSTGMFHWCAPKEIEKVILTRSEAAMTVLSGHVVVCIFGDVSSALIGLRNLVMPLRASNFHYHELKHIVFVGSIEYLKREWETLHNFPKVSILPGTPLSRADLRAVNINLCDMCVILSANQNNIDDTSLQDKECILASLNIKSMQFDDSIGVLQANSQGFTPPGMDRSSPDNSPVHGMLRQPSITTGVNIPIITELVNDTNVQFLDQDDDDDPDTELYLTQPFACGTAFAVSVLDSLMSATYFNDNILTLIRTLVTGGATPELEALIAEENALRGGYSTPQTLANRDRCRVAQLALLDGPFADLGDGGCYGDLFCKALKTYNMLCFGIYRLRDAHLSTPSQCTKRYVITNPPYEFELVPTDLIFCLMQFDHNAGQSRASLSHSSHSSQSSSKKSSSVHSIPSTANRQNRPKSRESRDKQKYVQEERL

melting point | ΔVmax, maximal left shift of the BK activation curve ([1]; BKCa channels expressed in Xenopus oocytes, 0.01-31.6 μM, sigmoidal logistic fit) | EC50 ([1]; BKCa channels expressed in Xenopus oocytes, ramp −120 to +120 mV, 0.01-31.6 μM, ΔV at control conductance level of +100 mV, sigmoidal logistic fit, read-out: EC50 for the left-shift of the BK activation curve (ΔV)) | SMILES | BK current level at depolarizing potentials ([1]; increasing concentrations (0.01-31.6 μM) applied, 100 s each, ramp protocol)
221 to 225 °C |  |  | O=C(Nc1cc(Cl)ccc1-c1nnn[nH]1)c1ccc2ccccc2c1O [Compound 8, 1-Hydroxy-naphthalene-2-carboxylic acid [5-chloro-2-(1H-tetrazol-5-yl)-phenyl]-amide] | 
247 to 249 °C |  |  | O=C(Nc1cc(Cl)ccc1-c1nnn[nH]1)c1cc(C(F)(F)F)cc(C(F)(F)F)c1 [Compound 4, N-[5-Chloro-2-(1H-tetrazol-5-yl)-phenyl]-3,5-bis-trifluoromethyl-benzamide] | 
 | −110 mV | 1300 nM | CCCN(CCC)S(=O)(=O)c1ccc(C(=O)Nc2cc(Cl)ccc2-c2nnn[nH]2)cc1 [Compound 12, N-[5-Chloro-2-(1H-tetrazol-5-yl)-phenyl]-4-dipropylsulfamoyl-benzamide] | marked increase in the current level at depolarizing potentials
